Measured values reported in US20020177594A1, “Inhibitors of histone deacetylase” (priority 2001, published 2002).

| Structure (SMILES) | melting point [°C] |
| --- | --- |
| O=C(NCCCCCC(=O)C(F)(F)F)OCC1c2ccccc2-c2ccccc21 [Example 89, 9H-fluoren-9-ylmethyl 7,7,7-trifluoro-6-oxoheptylcarbamate] | 83 to 88 |
| O=C(CCCCCCSc1ccccc1)c1ncco1 [Example 102, 1-(1,3-oxazol-2-yl)-7-(phenylsulfanyl)-1-heptanone] | 39 to 40 |
| O=C(CCCCCCS(=O)(=O)c1ccccc1)c1ncco1 [Example 103, 1-(1,3-oxazol-2-yl)-7-(phenylsulfonyl)-1-heptanone] | 55 to 56 |
| O=C(CCCCCCSc1ccc2ccccc2c1)c1ncco1 [Example 104, 7-(2-naphthylsulfanyl)-1-(1,3-oxazol-2-yl)-1-heptanone] | 65 to 66 |
| O=C(CCCCCCS(=O)(=O)c1ccc2ccccc2c1)c1ncco1 [Example 105, 7-(2-naphthylsulfonyl)-1-(1,3-oxazol-2-yl)-1-heptanone] | 75 to 76 |
| CNC(=O)C(=O)CCCCCCSc1ccc2ccccc2c1 [Example 106, N-methyl-8-(2-naphthylsulfanyl)-2-oxooctanamide] | 94 to 95 |
| CNC(=O)C(=O)CCCCCCS(=O)(=O)c1ccc2ccccc2c1 [Example 107, N-methyl-8-(2-naphthylsulfonyl)-2-oxooctanamide] | 108 to 109 |
| CNC(=O)C(=O)CCCCCCSc1ccc(-c2ccccc2)cc1 [Example 108, 8-((1,1′-biphenyl)-4-ylsulfanyl)-N-methyl-2-oxooctanamide] | 131 to 132 |
| O=C(NCCCCCCC(=O)c1ncco1)c1cc2ccccc2[nH]1 [Example 110, N-(7-(1,3-oxazol-2-yl)-7-oxoheptyl)-1H-indole-2-carboxamide] | 153 to 156 |
| O=C(NCCCCCC(=O)c1ncco1)c1cc2ccccc2[nH]1 [Example 111, N-(6-(1,3-oxazol-2-yl)-6-oxohexyl)-1H-indole-2-carboxamide] | 176 to 179 |
| CC(=O)C(=O)CCCCCCOc1ccc(-c2ccccc2)cc1 [Example 113, 9-((1,1′-biphenyl)-4-yloxy)-2,3-nonanedione] | 110 to 111 |
| CNC(=O)C(=O)CCCCCCSc1nc(-c2ccccc2)cs1 [Example 183, N-methyl-2-oxo-8-((4-phenyl-1,3-thiazol-2-yl)thio)octanamide] | 107 to 108 |
| CNC(=O)C(=O)CCCCCCSc1nc2ccccc2s1 [Example 184, 8-(1,3-benzothiazol-2-ylthio)-N-methyl-2-oxooctanamide] | 83 to 84 |
| CNC(=O)C(=O)CCCCCCc1csc(-c2ccccc2)n1 [Example 196, N-methyl-2-oxo-8-(2-phenyl-1,3-thiazol-4-yl)octanamide] | 70 to 72 |
| CNC(=O)C(=O)CCCCCO/N=C/c1ccc(-c2ccccc2)cc1 [Example 198, 7-((((1E)-1,1′-biphenyl-4-ylmethylidene)amino)oxy)-N-methyl-2-oxoheptanamide] | 86 to 87 |
| CNC(=O)C(=O)CCCCCCc1cnc(-c2ccccc2)o1 [Example 199, N-methyl-2-oxo-8-(2-phenyl-1,3-oxazol-5-yl)octanamide] | 78 to 80 |
| CNC(=O)C(=O)CCCCCCc1cnc(-c2ccc(Br)cc2)o1 [Example 217, 8-(2-(4-bromophenyl)-1,3-oxazol-5-yl)-N-methyl-2-oxooctanamide] | 90 to 92 |
| CNC(=O)C(=O)CCCCCCc1csc(-c2ccc(Cl)cc2)n1 [Example 218, 8-(2-(4-chlorophenyl)-1,3-thiazol-4-yl)-N-methyl-2-oxooctanamide] | 77 to 81 |
